Experiments:
[1] = target: T1, PIEZO1 channels endogenously expressed in HUVECs (Homo sapiens, UniProt Q92508); assay: Intracellular Ca2+ measurement in HUVECs; type: cell-based; conditions: peak ΔCa2+i, Hill fit, read-out: EC50 (estimated concentration for 50% effect)
T1 construct: HUVECs, which are a physiologically relevant cell type that endogenously expresses PIEZO1 channels; host or cells: HUVEC
Method: Human umbilical vein endothelial cells (HUVECs) purchased from PromoCell (#C‐12203) were maintained in endothelial cell […] medium 2 (ECGM‐2, PromoCell #C‐22111) supplemented with 500 pg·ml^−1 recombinant human vascular endothelial growth factor 165, 10 ng·ml^−1 recombinant human basic fibroblast growth factor, 200 ng·ml^−1 hydrocortisone, 22.5 μg·ml^−1 heparin and 2% (vol./vol.) fetal calf serum. […] After washing the cell monolayer with D‐PBS (Sigma #D8537), 2 ml pre‐warmed 0.05% trypsin– EDTA (Gibco #25300054) was added to 75 cm^2 flasks until the cells had detached (between 2 and 5 min at 37°C). Complete ECGM‐2 (8 ml) was added to inhibit the trypsin, the cells were counted and their density was adjusted before seeding into fresh vessels for maintenance cultivation or experimental purposes. The medium for maintenance of cultures was completely refreshed every 48 h. HUVECs were used for experiments after a minimum of three and a maximum of five passages. […]
HEK 293‐TREx cells and their stably transfected derivatives or transiently transfected HEK 293 or HeLa cells were seeded at a density of 7.5 × 10^4 cells per well into poly‐D‐lysine‐coated 96‐well plates. […] Measurements were made at room temperature on a 96‐well fluorescence plate reader (FlexStation 3, Molecular Devices, Sunnyvale, CA, USA) controlled by SoftMax Pro software v7.0.3. […]

mPIEZO2 = target: T2, mPIEZO2 (Mus musculus, UniProt Q8CD54); assay: Intracellular Ca2+ measurement in HEK 293 cells overexpressing mPIEZO2; type: cell-based; conditions: 10 μM, versus non-transfected cells
T2 construct: host or cells: HEK 293, transient
Method: mPIEZO2 pCMV‐Sport6 was a gift from Ardem Patapoutian (Coste et al., [2015]), obtained via Addgene (Addgene plasmid #81073; http://n2t.net/addgene:81073; RRID:Addgene_81073). It was sequenced for validation. Transient transfection of the plasmid was achieved using Lipofectamine 3000 in HEK 293 cells, 48 h prior to measurements being made.
HEK 293‐TREx cells and their stably transfected derivatives or transiently transfected HEK 293 or HeLa cells were seeded at a density of 7.5 × 10^4 cells per well into poly‐D‐lysine‐coated 96‐well plates. The plates were either commercially pre‐coated with poly‐D‐lysine (Greiner Bio‐One #655946) or (Greiner Bio‐One #655090) were coated in‐house with 35 μl of a 10 μg·ml^−1 poly‐D‐lysine (Bio‐Techne, Cultrex # 3439‐100‐01) in sterile deionised water per well for at least 24 h and rinsed three times with 100 μl per well sterile D‐PBS before addition of cells. HUVECs were seeded into tissue culture‐treated 96‐well plates (Greiner Bio‐One #655090) at a density of either 2.5 × 10^4 cells 24 h before experimentation or 1.25 × 10^4 cells 48 h before experimentation. […] Measurements were made at room temperature on a 96‐well fluorescence plate reader (FlexStation 3, Molecular Devices, Sunnyvale, CA, USA) controlled by SoftMax Pro software v7.0.3. […]

T1 sequence (Q92508 whole entry): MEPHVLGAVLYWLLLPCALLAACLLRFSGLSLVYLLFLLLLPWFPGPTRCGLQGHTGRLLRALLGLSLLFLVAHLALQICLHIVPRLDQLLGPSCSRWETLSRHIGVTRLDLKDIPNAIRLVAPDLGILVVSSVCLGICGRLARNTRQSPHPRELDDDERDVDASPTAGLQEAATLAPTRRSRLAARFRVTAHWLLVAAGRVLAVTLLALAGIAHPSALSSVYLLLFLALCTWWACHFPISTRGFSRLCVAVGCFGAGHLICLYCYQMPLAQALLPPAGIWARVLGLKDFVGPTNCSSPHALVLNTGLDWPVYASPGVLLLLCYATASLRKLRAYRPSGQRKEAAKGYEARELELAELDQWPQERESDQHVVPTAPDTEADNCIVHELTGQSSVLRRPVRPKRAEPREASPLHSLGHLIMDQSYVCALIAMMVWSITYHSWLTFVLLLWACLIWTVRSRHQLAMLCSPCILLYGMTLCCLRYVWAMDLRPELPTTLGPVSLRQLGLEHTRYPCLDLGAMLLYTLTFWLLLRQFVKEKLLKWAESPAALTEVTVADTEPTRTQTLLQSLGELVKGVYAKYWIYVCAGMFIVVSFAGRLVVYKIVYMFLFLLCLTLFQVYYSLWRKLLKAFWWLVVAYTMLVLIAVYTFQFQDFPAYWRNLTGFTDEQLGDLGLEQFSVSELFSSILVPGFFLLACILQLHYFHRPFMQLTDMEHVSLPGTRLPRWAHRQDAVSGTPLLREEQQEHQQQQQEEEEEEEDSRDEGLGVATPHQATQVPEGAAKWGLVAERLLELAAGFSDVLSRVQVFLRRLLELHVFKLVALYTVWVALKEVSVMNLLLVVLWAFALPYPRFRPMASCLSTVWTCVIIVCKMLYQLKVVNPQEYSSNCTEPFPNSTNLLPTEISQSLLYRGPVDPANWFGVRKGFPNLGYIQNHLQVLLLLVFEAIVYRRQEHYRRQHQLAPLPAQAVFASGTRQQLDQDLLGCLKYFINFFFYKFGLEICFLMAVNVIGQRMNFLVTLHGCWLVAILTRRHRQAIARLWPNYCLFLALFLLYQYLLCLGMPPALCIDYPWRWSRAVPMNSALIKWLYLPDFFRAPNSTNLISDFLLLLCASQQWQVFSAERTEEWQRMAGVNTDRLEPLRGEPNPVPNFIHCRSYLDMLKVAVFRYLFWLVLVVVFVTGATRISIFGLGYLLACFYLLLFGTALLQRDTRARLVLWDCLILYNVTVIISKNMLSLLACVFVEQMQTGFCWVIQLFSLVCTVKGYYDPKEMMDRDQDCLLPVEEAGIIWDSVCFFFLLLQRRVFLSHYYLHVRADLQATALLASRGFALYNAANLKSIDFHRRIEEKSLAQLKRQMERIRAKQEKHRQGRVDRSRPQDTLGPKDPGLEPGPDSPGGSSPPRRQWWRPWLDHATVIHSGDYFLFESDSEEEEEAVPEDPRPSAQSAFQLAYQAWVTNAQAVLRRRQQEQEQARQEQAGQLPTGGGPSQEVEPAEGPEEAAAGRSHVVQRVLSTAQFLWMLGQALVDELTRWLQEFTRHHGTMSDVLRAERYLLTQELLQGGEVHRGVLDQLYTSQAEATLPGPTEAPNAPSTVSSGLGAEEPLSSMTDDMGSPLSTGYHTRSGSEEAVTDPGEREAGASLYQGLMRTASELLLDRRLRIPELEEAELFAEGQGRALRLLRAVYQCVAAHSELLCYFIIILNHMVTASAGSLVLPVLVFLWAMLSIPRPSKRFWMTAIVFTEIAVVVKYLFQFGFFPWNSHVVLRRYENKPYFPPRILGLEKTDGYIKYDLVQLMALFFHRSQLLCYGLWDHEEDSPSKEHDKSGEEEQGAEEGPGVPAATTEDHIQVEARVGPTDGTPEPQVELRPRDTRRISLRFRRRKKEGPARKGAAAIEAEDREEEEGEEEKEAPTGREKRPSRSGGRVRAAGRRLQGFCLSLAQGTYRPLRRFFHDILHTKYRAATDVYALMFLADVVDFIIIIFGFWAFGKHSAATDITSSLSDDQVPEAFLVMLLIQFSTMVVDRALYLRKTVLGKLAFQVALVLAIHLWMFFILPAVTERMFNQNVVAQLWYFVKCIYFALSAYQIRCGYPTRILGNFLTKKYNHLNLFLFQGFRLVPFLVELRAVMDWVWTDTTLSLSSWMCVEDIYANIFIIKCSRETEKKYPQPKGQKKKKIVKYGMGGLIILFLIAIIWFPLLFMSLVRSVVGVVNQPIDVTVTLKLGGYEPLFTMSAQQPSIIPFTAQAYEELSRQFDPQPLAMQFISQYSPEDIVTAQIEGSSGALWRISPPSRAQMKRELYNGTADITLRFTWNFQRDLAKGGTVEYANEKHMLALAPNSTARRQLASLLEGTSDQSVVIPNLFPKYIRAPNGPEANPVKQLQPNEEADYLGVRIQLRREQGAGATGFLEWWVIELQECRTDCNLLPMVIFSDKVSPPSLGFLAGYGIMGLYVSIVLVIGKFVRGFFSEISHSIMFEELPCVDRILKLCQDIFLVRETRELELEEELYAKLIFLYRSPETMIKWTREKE

Row | SMILES | EC50 [1] | Ca2+ elevations in cells overexpressing mPIEZO2 (mPIEZO2)
1 | O=C(O)c1ccc(-c2nnc(SCc3c(Cl)cccc3Cl)s2)cc1 [KC159] | 2280 nM | not different from background signals in non‐transfected cells
2 | O=C([O-])c1ccc(-c2nnc(SCc3c(Cl)cccc3Cl)s2)cc1.[K+] [KC289] | 1140 nM | not different from background signals in non‐transfected cells

From PMC10952572, “Improved PIEZO1 agonism through 4‐benzoic acid modification of Yoda1” (British Journal of Pharmacology, 2023)
